Experimental data taken from patent US11753408B2, “Compounds and method for blocking transmission of malarial parasite” (The United States of America, as represented by the …, priority 2016, dated 2023).

Columns and labels:
[1] = Microsomal stability (rat); format: in vitro ADME; conditions: rat microsomes
mTOR = mTOR (Homo sapiens, UniProt P42345); assay: mTOR activity (no method described); format: biochemical
[2] = system: Asexual parasites of P. falciparum strain 3D7; assay: In vitro drug activity on asexual parasites (SYBR Green assay); format: cell-based, Plasmodium falciparum
Method in brief: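 3D7 parasites at 0.5% parasitemia and 2% hematocrit were exposed to drugs (DMSO ≤0.5%) for 72 h under standard culture conditions, in duplicate. After freeze-thaw lysis, SYBR Green I lysis buffer was added for 30 min at room temperature, and fluorescence was read at 490/520 nm.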

PAMPA permeability = format: in vitro ADME
Solubility at pH 7.4 = format: physicochemical

Microsomal Stability (rat) T1/2 [1]	mTOR (mTOR)	EC50 [2]	PAMPA Permeability (PAMPA permeability)	Sol @ pH 7.4 (Solubility at pH 7.4)	SMILES
>30 min	0.4436 µM	52.9 nM	< 1 ×10⁻⁶ cm/s	31.6 ug/mL	NCCc1ccc(-c2ccc3ncc4ccc(=O)n(-c5ccc(C(=O)NC6CC6)cc5)c4c3c2)cc1 [Compound 240]
>30 min	6.061 µM	335 nM	18.6 ×10⁻⁶ cm/s	>74 ug/mL	CN(C)CCc1ccc(-c2ccc3ncc4ccc(=O)n(-c5ccc(C(=O)NC6CC6)cc5)c4c3c2)cc1 [Compound 241]
>30 min	0.373 µM	489 nM	< 1 ×10⁻⁶ cm/s	>74 ug/mL	O=C(c1ccc(-n2c(=O)ccc3cnc4ccc(-c5ccc6c(c5)CNC6)cc4c32)cc1)N1CCOCC1 [Compound 242]
>30 min	14.6 µM	677 nM	382 ×10⁻⁶ cm/s	>76 ug/mL	CCN(CC)Cc1ccc(-c2ccc3ncc4ccc(=O)n(-c5ccc(C(=O)NC6CC6)cc5)c4c3c2)cc1 [Compound 243]
>30 min	7.873 µM	1640 nM	216 ×10⁻⁶ cm/s	>76 ug/mL	CN1Cc2ccc(-c3ccc4ncc5ccc(=O)n(-c6ccc(C(=O)N7CCOCC7)cc6)c5c4c3)cc2C1 [Compound 244]
>30 min	10.41 µM	3820 nM	11.7 ×10⁻⁶ cm/s	>61 ug/mL	N#Cc1ccc2ncc3ccc(=O)n(-c4ccc(C(=O)N5CCOCC5)cc4)c3c2c1 [Compound 245]
>30 min	0.6459 µM	1260 nM	1.5 ×10⁻⁶ cm/s	>72 ug/mL	CC(C)(N)c1ccc(-c2ccc3ncc4ccc(=O)n(-c5ccc(C(=O)NC6CC6)cc5)c4c3c2)cc1 [Compound 246]
16.7 min	1.903 µM	81.8 nM	846 ×10⁻⁶ cm/s	<1 ug/mL	Cc1cc(C(=O)NC2CC2)ccc1-n1c(=O)ccc2cnc3ccc(-c4ccc(Cl)cc4)nc3c21 [Compound 247]
7.9 min	14.76 µM	576 nM	1070 ×10⁻⁶ cm/s	>82 ug/mL	CCN(CC)CCNC(=O)c1ccc(-n2c(=O)ccc3cnc4ccc(-c5ccc(Cl)cc5)cc4c32)c(OC)c1 [Compound 249]
>30 min	2.911 µM	549 nM	14.3 ×10⁻⁶ cm/s	9.5 ug/mL	COc1cc(C(=O)NC2CCN(CCN(C)C)CC2)ccc1-n1c(=O)ccc2cnc3ccc(-c4ccc(Cl)cc4)cc3c21 [Compound 250]
1.3 min	100 µM	2370 nM	< 1 ×10⁻⁶ cm/s	<1 ug/mL	COc1cc(C(=O)NCCN(C)c2ccccc2)ccc1-n1c(=O)ccc2cnc3ccc(-c4ccc(Cl)cc4)cc3c21 [Compound 251]
>30 min	8.463 µM	258 nM	353 ×10⁻⁶ cm/s	>80 ug/mL	COc1cc(C(=O)NCCN2CCC2)ccc1-n1c(=O)ccc2cnc3ccc(-c4ccc(Cl)cc4)cc3c21 [Compound 253]
>30 min	3.012 µM	206 nM	5.7 ×10⁻⁶ cm/s	53.1 ug/mL	COc1cc(C(=O)NC2CCN(CCO)CC2)ccc1-n1c(=O)ccc2cnc3ccc(-c4ccc(Cl)cc4)cc3c21 [Compound 254]
2.3 min	12.95 µM	182 nM	1040 ×10⁻⁶ cm/s	>88 ug/mL	COc1cc(C(=O)NCCCN2CCC(C)CC2)ccc1-n1c(=O)ccc2cnc3ccc(-c4ccc(Cl)cc4)cc3c21 [Compound 255]
3.5 min	8.776 µM	501 nM	664 ×10⁻⁶ cm/s	<1 ug/mL	COc1cc(C(=O)NCCN2CCCCC2)ccc1-n1c(=O)ccc2cnc3ccc(-c4ccc(Cl)cc4)cc3c21 [Compound 256]
>30 min	2.719 µM	60.8 nM	1.5 ×10⁻⁶ cm/s	>84 ug/mL	COc1cc(C(=O)NCCN2CCNCC2)ccc1-n1c(=O)ccc2cnc3ccc(-c4ccc(Cl)cc4)cc3c21 [Compound 257]
21.9 min	5.227 µM	52.1 nM	626 ×10⁻⁶ cm/s	11.8 ug/mL	COc1cc(C(=O)NC2CC2)ccc1-n1c(=O)ccc2cnc3ccc(-c4ccc(F)c(O)c4)cc3c21 [Compound 272]
21.4 min	4.9 µM	40.6 nM	1010 ×10⁻⁶ cm/s	63.8 ug/mL	Cc1cc(C(=O)NCCN(C)C)ccc1-n1c(=O)ccc2cnc3ccc(-c4ccc(Cl)cc4)cc3c21 [Compound 274]
19.9 min	4.039 µM	44.2 nM	427 ×10⁻⁶ cm/s	65.6 ug/mL	Cc1cc(C(=O)NCCCN(C)C)ccc1-n1c(=O)ccc2cnc3ccc(-c4ccc(Cl)cc4)cc3c21 [Compound 275]
5.8 min	21.76 µM	222 nM	973 ×10⁻⁶ cm/s	34.8 ug/mL	CCN(CC)CCNC(=O)c1ccc(-n2c(=O)ccc3cnc4ccc(-c5ccc(Cl)cc5)cc4c32)c(C)c1 [Compound 276]
3.8 min	3.631 µM	82.5 nM	354 ×10⁻⁶ cm/s	19.9 ug/mL	Cc1cc(C(=O)NCCN2CCN(C)CC2)ccc1-n1c(=O)ccc2cnc3ccc(-c4ccc(Cl)cc4)cc3c21 [Compound 277]
2.6 min	8 µM	110 nM	1380 ×10⁻⁶ cm/s	>83 ug/mL	Cc1cc(C(=O)NCCCN2CCCCC2)ccc1-n1c(=O)ccc2cnc3ccc(-c4ccc(Cl)cc4)cc3c21 [Compound 278]
15.8 min	1.317 µM	50.5 nM	49.1 ×10⁻⁶ cm/s	>84 ug/mL	Cc1cc(C(=O)NC2CCN(CCO)CC2)ccc1-n1c(=O)ccc2cnc3ccc(-c4ccc(Cl)cc4)cc3c21 [Compound 279]
>30 min	1.609 µM	152 nM	49.1 ×10⁻⁶ cm/s	73.6 ug/mL	Cc1cc(C(=O)NC2CCN(CCN(C)C)CC2)ccc1-n1c(=O)ccc2cnc3ccc(-c4ccc(Cl)cc4)cc3c21 [Compound 280]
3 min	2.18 µM	27.4 nM	33.4 ×10⁻⁶ cm/s	>86 ug/mL	Cc1cc(C(=O)NCCCN(CCO)CCO)ccc1-n1c(=O)ccc2cnc3ccc(-c4ccc(Cl)cc4)cc3c21 [Compound 281]
4.1 min	4.536 µM	71.4 nM	598 ×10⁻⁶ cm/s	>86 ug/mL	Cc1cc(C(=O)NCCCN2CCN(C)CC2)ccc1-n1c(=O)ccc2cnc3ccc(-c4ccc(Cl)cc4)cc3c21 [Compound 282]
2.7 min	15.09 µM	69.1 nM	1180 ×10⁻⁶ cm/s	70.7 ug/mL	Cc1cc(C(=O)NCCCN2CCC(C)CC2)ccc1-n1c(=O)ccc2cnc3ccc(-c4ccc(Cl)cc4)cc3c21 [Compound 283]
